Test results reported in patent US9409858B2, “Selective histone deactylase 6 inhibitors” (H. LEE MOFFITT CANCER CENTER AND RESEARCH INSTITUTE, INC., priority 2012, dated 2016).
Entries after “also recorded” stand apart in the source; their conditions may differ.

Tests used:
[1] = target: human, recombinant full-length HDAC1 (Homo sapiens (Human), UniProt Q13547); test: HDAC inhibition assay, HDAC1; format: biochemical
[2] = target: human, recombinant full-length HDAC6 (Homo sapiens (Human), UniProt Q9UBN7); test: HDAC inhibition assay, HDAC6; format: biochemical;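 further: recombinant full-length human HDAC1 and HDAC6 made in Sf9 cells, compound preincubated 5-10 min then substrate reaction 2 h at 30 °C, ten threefold dilutions from 30 µM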
[3] = system: B16 murine melanoma cells; test: B16 melanoma cell growth inhibition assay (MTS); format: cell-based
Method: B16 murine melanoma cells were plated at 5×10^3/well in 96 well flat bottom plates. The following day, media was changed to that containing various concentrations of HDACi or matched DMSO vehicle concentrations diluted in complete medium done in triplicate. Cells were incubated for 48 hours at 37° C. and 5% CO2. […] Briefly, 20 μL of reagent were added per well and incubated at 37° C. for 3 hours. […] All values were then normalized and expressed as a percentage of medium control (100%).

[4] = system: JAK2/STAT3 phosphorylation; test: JAK2/STAT3 phosphorylation in B16 murine melanoma cells in vivo
MCL = test: Antitumor effect in MCL-bearing mice; format: in vivo
[5] = system: STAT3 phosphorylation and recruitment to the IL-10 gene promotor; test: STAT3 phosphorylation and recruitment to the IL-10 gene promotor in APCs; format: cell-based
[6] = system: antigen-specific T-cell responses; test: Antigen-specific T-cell responses to vaccination in vivo; set-up: species or system mice; conditions: in vivo treatment
macrophages = test: Immunological effects upon macrophages; format: cell-based
[7] = system: naIve and anergic T-cells; test: In vitro antigen-presenting studies with treated macrophages; format: cell-based
melanoma = test: Anti-melanoma effect in vivo; conditions: alone or in combination with anti-CLTA4
[8] = system: acetyl α-tubulin in B16 melanoma cells; test: Tubulin acetylation Western blot assay; format: cell-based, murine; conditions: low nanomolar treatment, 24 h
Method: (§1) […]. B16 melanoma cells were plated at 10^5 cells/well in 12 well plates and allowed to adhere overnight. A 50 mM stock of compound was then added by serial dilutions in complete medium to the indicated concentrations. Cells were incubated for 24 h under humidified conditions (37° C., 5% CO2). Wells were then washed with cold PBS, and cells were lysed in a buffer containing 10 mM Tris-HCl pH 8.0, 10% SDS, […], 100 mM DTT, and 1× protease inhibitor (Roche). Cells were lysed for 30 min on ice and then sonicated for 8 min (8 cycles of 30 s on/30 s rest). Cells were then boiled for 10 min with 6× gel loading buffer and resolved on 4-15% gradient gels and subsequently transferred onto nitrocellulose membranes. Membranes were blocked with 5% milk in PBS-T and detection of specific antigens using antibodies against acetyl-H3 and H3 (Cell Signaling), and acetyl-α-tubulin and α-tubulin (Sigma). Bands were detected by scanning blots with LI-COR Odyssey imaging system using both 700 and 800 channels.

HDAC3 = HDAC3 (Homo sapiens (Human), UniProt O15379); test: HDAC isoform profile, HDAC3; format: biochemical; conditions: Table 3 isoform profile
[9] = system: histone H3 acetylation in B16 melanoma cells; test: Histone acetylation Western blot assay; format: cell-based, murine
Method: as §1

[10] = Table 1, mean of two experiments ± standard deviation, 10-point enzyme assay

human, recombinant full-length HDAC1, sequence (Q13547 whole entry): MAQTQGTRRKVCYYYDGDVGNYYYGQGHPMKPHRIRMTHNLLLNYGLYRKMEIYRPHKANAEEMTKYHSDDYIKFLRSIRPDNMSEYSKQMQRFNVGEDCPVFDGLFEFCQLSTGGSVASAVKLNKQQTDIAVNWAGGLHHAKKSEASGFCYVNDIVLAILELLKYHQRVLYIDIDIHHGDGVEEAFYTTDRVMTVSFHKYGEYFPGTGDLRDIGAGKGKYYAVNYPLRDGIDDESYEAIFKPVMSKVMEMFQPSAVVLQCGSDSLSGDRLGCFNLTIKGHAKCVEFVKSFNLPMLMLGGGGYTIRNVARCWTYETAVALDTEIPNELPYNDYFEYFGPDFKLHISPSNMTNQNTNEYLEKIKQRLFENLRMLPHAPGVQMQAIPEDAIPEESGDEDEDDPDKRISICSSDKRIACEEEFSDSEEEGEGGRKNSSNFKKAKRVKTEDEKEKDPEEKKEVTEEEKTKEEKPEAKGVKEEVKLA
human, recombinant full-length HDAC6, sequence (Q9UBN7 whole entry): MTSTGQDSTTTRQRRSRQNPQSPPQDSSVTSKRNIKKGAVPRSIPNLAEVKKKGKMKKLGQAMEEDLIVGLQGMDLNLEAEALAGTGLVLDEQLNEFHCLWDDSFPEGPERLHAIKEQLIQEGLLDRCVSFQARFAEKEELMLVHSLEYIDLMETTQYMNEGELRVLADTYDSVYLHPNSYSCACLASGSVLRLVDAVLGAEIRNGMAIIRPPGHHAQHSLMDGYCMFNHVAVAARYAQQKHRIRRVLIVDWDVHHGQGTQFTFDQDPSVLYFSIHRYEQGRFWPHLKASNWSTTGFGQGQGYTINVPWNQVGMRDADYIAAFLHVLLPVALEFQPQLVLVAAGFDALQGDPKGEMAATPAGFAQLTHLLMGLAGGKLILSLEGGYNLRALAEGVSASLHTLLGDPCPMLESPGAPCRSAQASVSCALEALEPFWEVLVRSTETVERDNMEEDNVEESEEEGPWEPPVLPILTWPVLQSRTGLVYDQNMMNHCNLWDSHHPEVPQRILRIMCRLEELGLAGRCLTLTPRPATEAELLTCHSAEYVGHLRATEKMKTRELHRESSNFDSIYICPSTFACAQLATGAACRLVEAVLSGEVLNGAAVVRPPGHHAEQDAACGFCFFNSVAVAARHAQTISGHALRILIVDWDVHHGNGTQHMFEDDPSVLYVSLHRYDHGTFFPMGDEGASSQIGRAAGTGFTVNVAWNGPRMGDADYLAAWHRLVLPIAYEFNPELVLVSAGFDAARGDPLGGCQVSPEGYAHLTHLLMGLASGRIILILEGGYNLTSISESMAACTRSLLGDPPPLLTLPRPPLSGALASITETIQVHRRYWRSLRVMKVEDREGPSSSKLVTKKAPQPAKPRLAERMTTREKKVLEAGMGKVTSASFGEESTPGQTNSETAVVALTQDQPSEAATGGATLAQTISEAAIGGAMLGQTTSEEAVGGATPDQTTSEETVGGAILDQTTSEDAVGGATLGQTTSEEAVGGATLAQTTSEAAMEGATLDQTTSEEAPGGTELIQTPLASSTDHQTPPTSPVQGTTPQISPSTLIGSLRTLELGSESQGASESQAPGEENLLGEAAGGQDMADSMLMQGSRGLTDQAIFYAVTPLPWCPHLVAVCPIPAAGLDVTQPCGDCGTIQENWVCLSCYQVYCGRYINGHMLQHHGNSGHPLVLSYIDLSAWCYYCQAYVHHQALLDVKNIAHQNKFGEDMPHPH
HDAC3, sequence (O15379 whole entry, canonical isoform): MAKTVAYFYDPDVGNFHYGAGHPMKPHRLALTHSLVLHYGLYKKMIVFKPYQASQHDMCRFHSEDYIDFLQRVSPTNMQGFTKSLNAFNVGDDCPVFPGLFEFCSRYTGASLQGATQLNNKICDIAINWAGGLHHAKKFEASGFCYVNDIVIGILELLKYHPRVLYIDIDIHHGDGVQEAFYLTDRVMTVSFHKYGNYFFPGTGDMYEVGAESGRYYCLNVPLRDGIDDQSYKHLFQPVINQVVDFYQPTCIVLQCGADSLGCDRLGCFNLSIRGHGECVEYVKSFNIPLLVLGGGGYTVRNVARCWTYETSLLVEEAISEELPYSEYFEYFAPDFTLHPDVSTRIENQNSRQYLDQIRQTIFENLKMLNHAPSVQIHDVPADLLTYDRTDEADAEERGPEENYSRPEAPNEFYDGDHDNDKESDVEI
HDAC3, sequence (Q9Y618 395-489 partner): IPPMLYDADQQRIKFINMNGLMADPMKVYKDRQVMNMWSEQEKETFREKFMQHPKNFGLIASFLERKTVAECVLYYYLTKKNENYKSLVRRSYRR

| SMILES | IC50 [1, 10] | Fold Selective (HDAC1/HDAC6) ([2]; Table 1) | IC50 [2, 10] | other results |
| --- | --- | --- | --- | --- |
| COc1ccccc1NC(=O)NCc1ccc(C(=O)NO)cc1 [Compound 1] | 265 ± 59 nM | 2 | 139 ± 27 nM | – |
| COc1ccccc1NC(=O)N(CCc1c[nH]c2ccccc12)Cc1ccc(C(=O)NO)cc1 [Compound 5c, 4-((1-(2-(1H-indol-3-yl)ethyl)-3-(2-methoxyphenyl)ureido)methyl)-N-hydroxybenzamide] | 8950 ± 770 nM | 19 | 468 ± 130 nM | – |
| COc1ccccc1NC(=O)N(CCCO)Cc1ccc(C(=O)NO)cc1 [Compound 5b, N-hydroxy-4-((1-(3-hydroxypropyl)-3-(2-methoxyphenyl)ureido)methyl)-benzamide] | 1910 ± 570 nM | 803 | 2.38 ± 0.38 nM | – |
| COc1ccc(NC(=O)NCc2ccc(C(=O)NO)cc2)cc1 [Compound 9a] | 1060 nM | 128 | 8.3 nM | – |
| COc1ccccc1NC(=O)N(CCCN(C)C)Cc1ccc(C(=O)NO)cc1 [Compound 5a, 4-((1-(3-(dimethylamino)propyl)-3-(2-methoxyphenyl)ureido)methyl)-N-hydroxybenzamide] | 2550 ± 540 nM | 6 | 458 ± 64 nM | – |
| O=C(NO)c1ccc(CN(CCc2ccccc2)C(=O)Nc2ccccc2)cc1 [Compound 5h, N-hydroxy-4-((1-phenethyl-3-phenylureido)methyl)benzamide] | 3120 ± 640 nM | 222 | 14 ± 0.75 nM | growth inhibition of B16 melanoma cells (in words) [3]: capable of inhibiting the growth of B16 melanoma cell line |
| COCCCN(Cc1ccc(C(=O)NO)cc1)C(=O)Nc1ccccc1 [Compound 5e, N-hydroxy-4-((1-(3-methoxypropyl)-3-phenylureido)methyl)benzamide] | 5180 ± 130 nM | 443 | 11.7 ± 1.7 nM | – |
| COc1ccccc1N1C(=O)N(Cc2ccc(C(=O)NO)cc2)C(C)(C)C1=O [Compound 10a] | – | – | – | IC50 ([1]; Table 2, cyclic urea compounds): 28600 nM; Fold Selective (HDAC1/HDAC6) ([2]; Table 2, cyclic urea compounds): 386; IC50 ([2]; Table 2, cyclic urea compounds): 74.2 nM |
| CN1CCc2c(c3ccccc3n2Cc2ccc(C(=O)NO)cc2)C1 [Tubastatin A] | – | – | – | JAK2/STAT3 phosphorylation [4]: inhibits JAK2/STAT3 phosphorylation; antitumor effect (MCL): strong antitumor effect; STAT3 phosphorylation and recruitment to the IL-10 gene promotor [5]: decreased STAT3 phosphorylation and recruitment to the IL-10 gene promotor; antigen-specific T-cell responses to vaccination [6]: augments antigen-specific CD4+ T-cell responses to vaccination; antigen-specific T-cell responses to vaccination ([6]; listed as Tubastatin-A): enhances antigen-specific T-cell responses to vaccination; IL-10 production (macrophages): inhibits IL-10 production; expression of co-stimulatory molecules (macrophages): increased the expression of co-stimulatory molecules; activation of T-cells by treated macrophages [7]: better activators of naIve T-cells and restore the responsiveness of anergic T-cells; anti-melanoma effect (melanoma): anti-melanoma effect |
| CC(C)[C@@H]1C(=O)N(c2ccccc2)C(=O)N1Cc1ccc(C(=O)NO)cc1 [Compound 10b] | – | – | – | IC50 ([1]; Table 2, cyclic urea compounds): 11800 nM; Fold Selective (HDAC1/HDAC6) ([2]; Table 2, cyclic urea compounds): 531; IC50 ([2]; Table 2, cyclic urea compounds): 22.2 nM |
| CCCCN(C(=O)NCc1ccc(C(=O)NO)cc1)c1ccccc1 [Compound 8a, 4-((3-butyl-3-phenylureido)methyl)-N-hydroxybenzamide] | 8120 ± 600 nM | 322 | 25.2 ± 2.5 nM | – |
| COCCN(Cc1ccc(C(=O)NO)cc1)C(=O)Nc1ccccc1 [Compound 5f, N-hydroxy-4-((1-(2-methoxyethyl)-3-phenylureido)methyl)benzamide] | 2250 ± 420 nM | 243 | 9.26 ± 0.66 nM | – |
| O=C(NO)c1ccc(CN2C(=O)N[C@@H](Cc3ccccc3)C2=O)cc1 [Compound 11a] | – | – | – | IC50 ([1]; Table 2, cyclic urea compounds): 7560 nM; Fold Selective (HDAC1/HDAC6) ([2]; Table 2, cyclic urea compounds): 295; IC50 ([2]; Table 2, cyclic urea compounds): 25.6 nM |
| CCCCN(Cc1ccc(C(=O)NO)cc1)C(=O)Nc1ccccc1 [Compound 5g, 4-((1-butyl-3-phenylureido)methyl)-N-hydroxybenzamide] | – | – | – | acetyl α-tubulin levels [8]: dose-dependant increase of acetyl α-tubulin levels; also recorded: increased acetyl-tubulin levels; IC50 (HDAC3): 6680 ± 1750 nM; histone H3 acetylation ([9]; concentrations of 1 and 10 μM): observable increase in histone H3 acetylation; histone H3 acetylation ([9]; low nanomolar treatment, 24 h): without a concamanent elevation of histone H3 acetylation |
| Cc1cc(NC(=O)NCc2ccc(C(=O)NO)cc2)no1 [Compound 9c] | 1000 nM | 145 | 6.9 nM | – |
| COc1ccccc1NC(=O)N(CCc1ccc(O)cc1)Cc1ccc(C(=O)NO)cc1 [Compound 5d, N-hydroxy-4-((1-(4-hydroxyphenethyl)-3-(2-methoxyphenyl)ureido)methyl)-benzamide] | 1690 ± 120 nM | 292 | 5.8 ± 0.5 nM | – |
| Cc1ccnc(NC(=O)NCc2ccc(C(=O)NO)cc2)c1 [Compound 9b] | 579 nM | 263 | 2.2 nM | – |
